# Where “and” joins values, the source holds several entries; their conditions need not be identical. Equal entries are not always repeated.
# Legend:
# KLN 205 (lung carcinoma) = test: Effect of isomer 4 (9d) on tumour growth, KLN 205 (Example 10); type: in vivo; conditions: KLN 205 (high dose lung carcinoma); DBA/2NCrI mice; 260 ng/mice i.p. days 6, 7 and 14
# Method: (§1) The following assays were made in order to check the effect of isomer 4 (9d) on different tumours following methods and materials analogous to those used in examples 8 and 9, In all cases sterile physiologic saline (Grifols, Barcelona, Spain) was used as placebo. Isomer 4 (9d) was tested at the dose levels indicated in Table 13 on days 6, 7 and 14 after tumour inoculation. In all cases the vehicle was physiologic saline and the treatments were given by intraperitoneal route. The volume inoculated was 0.2 mL/animal.
# [1] = test system: CD11b and Ly6G positive leukocyte populations; test: Phenotype leukocyte analysis by flow cytometry (CD11b, Ly6G) in peripheral blood (Example 16); type: in vivo, Balb/c mice
# Method: This Example was carried out with the aim at assessing eventual differences in the leukocyte population percentage among the treated mice by flow cytometry. The counts were carried out by using a flow cytometer after labelling membrane proteins (CD11B and Ly6G) with specific antibodies to said proteins. CD11B (also known as Mac-1) marker is expressed in monocyte populations whereas Ly6G (also known as GR-1) is expressed in granulocyte populations. Both markers (CD11b and Ly6G) are expressed in neutrophile populations.
# Isomer 4 (compound 9d) at 65 μg/mL in sterile physiological saline.
# Equipment Laminar flood hood, Flow cytometer, Adjustable pipettes, Sterile syringes, Sterile needles, EDTA stelile tubes, Plastic tubes. Reagents • Anaesthetic solution • Sterile PBS (Sigma, St. Louis, Mo., USA) • Physiological saline (Grifols, Barcelona, Spain) • Rat anti-mouse CD11b-PE (Beckman Coulter, Fullerton, Calif., USA) • Rat anti-mouse Ly6G-FITC (Beckman Coulter, Fullerton, Calif., USA) • Optylise C (Beckman Coulter, Fullerton, Calif., USA) Dose, Vehicle, Route and Volume Administration Dose Isomer 4 (compound 9d) was tested at the dose levels of 250 ng administered on days 0, and 7. Vehicle The vehicle in which Isomer 4 was diluted is physiological saline. Administration Route and Volume
# The treatments were given by intraperitoneal route. The volume inoculated was 200 μl/animal.
# Balb/c mice were distributed into 2 experimental groups:
# Three days after the last dose of the treatment, murine blood was isolated. It was obtained directly from intracardiac punction. Previously, mice were anesthetized intramuscularly.
# Blood was mixed with the monoclonal antibodies described above.
# After 20 minutes of incubation, Optylise C solution was added into the samples to lise erythrocytes population.
# Finally, samples were diluted ½ with 1× sterile PBS and checked by flow cytometry.
# Percentages of each population analyzed were expressed as single values and as the mean±SD from each experimental group.
# Lewis (lung carcinoma) = test: Effect of isomer 4 (9d) on tumour growth, Lewis (Example 10); type: in vivo; conditions: Lewis (low dose lung carcinoma); C57BL/6NCrI mice; 260 ng/mice i.p. days 6, 7 and 14
# Method: as §1
# [2] = Balb/C mice, two doses (once per week) 250 ng i.p., flow cytometry three days after the last dose
# [3] = group mean, n = 4, 250 ng i.p. on days 0 and 7, blood three days after the last dose
# [4] = individual mice, 250 ng i.p. on days 0 and 7, blood three days after the last dose, listed as 9d
smiles,measurement,setting,value
"Br.N[C@]1(C[n+]2ccccc2)C[C@H](C(=O)O)NC1=O.[Br-] (single isomer, unassigned; isomer 4) [isomer 4, 3S,5R-1-(3-Amino-5-carboxy-2-oxopyrrolidin-3-ylmethyl)pyridinium bromide hidrobromide]",Tumour growth inhibition?,KLN 205 (lung carcinoma),YES
same,CD11b positive cells in peripheral blood compared with control mice,[1]; [2],increment
same,CD11b+Ly6G positive cells in peripheral blood compared with control mice,[1]; [2],increment
same,Ly6G positive cells in peripheral blood compared with control mice,[1]; [2],increment
same,"CD11b+ cells, PBL (Peripheral Blood), flow cytometry, Media",[1]; [3],36.95%
same,"CD11b+Ly6G+ cells, PBL (Peripheral Blood), flow cytometry, Media",[1]; [3],31.05%
same,"Ly6G+ cells, PBL (Peripheral Blood), flow cytometry, Media",[1]; [3],34.775%
same,"CD11b+ cells, PBL (Peripheral Blood), flow cytometry",[1]; [4],35.5% and 44% and 35.4% and 32.9%
same,"CD11b+Ly6G+ cells, PBL (Peripheral Blood), flow cytometry",[1]; [4],29.7% and 32.3% and 28.5% and 33.7%
same,"Ly6G+ cells, PBL (Peripheral Blood), flow cytometry",[1]; [4],27% and 37.6% and 33.3% and 41.2%
same,Tumour growth inhibition?,Lewis (lung carcinoma),YES
